Experimental data: BindingDB's records for doi:10.1124/jpet.102.040394 (Merck Sharp and Dohme Research Laboratories, 2002)

Assays:
[1] = target: Transient receptor potential cation channel subfamily V member 1 (Homo sapiens, UniProt Q8NER1)
[2] = target: Transient receptor potential cation channel subfamily V member 1 (Rattus norvegicus, UniProt O35433)
Transient receptor potential cation channel subfamily V member 1 (Rattus norvegicus, UniProt O35433), sequence (O35433 whole entry): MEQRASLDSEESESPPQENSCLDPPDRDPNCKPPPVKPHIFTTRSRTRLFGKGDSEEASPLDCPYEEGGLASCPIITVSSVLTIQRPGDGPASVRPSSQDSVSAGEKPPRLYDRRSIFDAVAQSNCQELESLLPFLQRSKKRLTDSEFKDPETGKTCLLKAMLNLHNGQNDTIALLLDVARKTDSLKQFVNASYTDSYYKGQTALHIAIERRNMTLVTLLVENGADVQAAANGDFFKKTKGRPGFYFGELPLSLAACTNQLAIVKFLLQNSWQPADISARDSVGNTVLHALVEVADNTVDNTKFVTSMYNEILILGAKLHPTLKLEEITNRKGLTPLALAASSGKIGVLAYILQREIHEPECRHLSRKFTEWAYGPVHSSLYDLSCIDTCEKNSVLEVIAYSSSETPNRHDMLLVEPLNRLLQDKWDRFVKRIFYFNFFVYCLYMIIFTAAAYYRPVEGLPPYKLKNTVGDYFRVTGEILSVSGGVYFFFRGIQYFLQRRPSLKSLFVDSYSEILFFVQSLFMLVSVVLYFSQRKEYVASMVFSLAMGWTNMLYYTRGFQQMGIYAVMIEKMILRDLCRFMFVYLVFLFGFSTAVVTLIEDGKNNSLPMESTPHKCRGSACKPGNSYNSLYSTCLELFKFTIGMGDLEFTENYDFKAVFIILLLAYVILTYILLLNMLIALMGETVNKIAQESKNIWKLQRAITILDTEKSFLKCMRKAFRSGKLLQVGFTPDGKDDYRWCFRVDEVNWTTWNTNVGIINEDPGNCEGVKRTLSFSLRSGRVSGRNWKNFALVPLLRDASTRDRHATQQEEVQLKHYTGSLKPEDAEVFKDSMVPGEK

Transient receptor potential cation channel subfamily V member 1 (Homo sapiens, UniProt Q8NER1), sequence (Q8NER1 whole entry): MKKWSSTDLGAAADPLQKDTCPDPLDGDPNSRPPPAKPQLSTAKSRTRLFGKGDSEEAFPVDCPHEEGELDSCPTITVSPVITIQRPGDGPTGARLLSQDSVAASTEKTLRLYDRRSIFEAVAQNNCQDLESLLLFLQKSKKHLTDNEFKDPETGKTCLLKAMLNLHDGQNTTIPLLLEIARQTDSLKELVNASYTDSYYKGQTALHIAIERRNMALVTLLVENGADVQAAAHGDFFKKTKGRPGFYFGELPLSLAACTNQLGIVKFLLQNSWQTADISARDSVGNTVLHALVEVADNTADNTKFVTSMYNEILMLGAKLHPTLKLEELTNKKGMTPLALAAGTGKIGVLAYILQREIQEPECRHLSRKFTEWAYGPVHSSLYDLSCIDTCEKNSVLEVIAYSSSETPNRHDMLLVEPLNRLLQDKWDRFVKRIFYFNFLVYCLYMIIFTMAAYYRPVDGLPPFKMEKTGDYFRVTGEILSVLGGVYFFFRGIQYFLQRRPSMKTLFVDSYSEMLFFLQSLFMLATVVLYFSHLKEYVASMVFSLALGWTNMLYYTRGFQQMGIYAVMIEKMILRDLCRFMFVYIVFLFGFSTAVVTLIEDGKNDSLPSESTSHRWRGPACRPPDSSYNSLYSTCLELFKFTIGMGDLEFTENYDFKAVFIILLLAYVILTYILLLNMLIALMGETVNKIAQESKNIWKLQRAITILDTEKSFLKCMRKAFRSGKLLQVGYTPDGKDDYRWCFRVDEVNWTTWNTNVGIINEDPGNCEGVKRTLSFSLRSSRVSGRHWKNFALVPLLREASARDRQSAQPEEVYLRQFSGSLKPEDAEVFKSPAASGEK

| Compound | Ki [1] | Ki [2] |
| --- | --- | --- |
| C=C(C)[C@]12C[C@@H](C)[C@@]34O[C@](Cc5ccccc5)(O[C@@H]1[C@@H]3C(COC(=O)Cc1cc(I)c(O)c(OC)c1)=CC[C@@H]1C(=O)C(C)=C[C@H]14)O2 [5'-IODORESINIFERATOXIN] | 6.7 nM | 0.39 nM |
| Oc1cc2c(cc1O)CN(C(=S)NCCc1ccc(Cl)cc1)CCC2 [N-[2-(4-chlorophenyl)ethyl]-7,8-dihydroxy-2,3,4,5-tetrahydro-1H-2-benzazepine-2-carbothioamide] |  | 4300 nM |
